These results are taken from patent US20180160679A1, “PROCESS FOR TREATING PERENNIAL PLANT WOOD DISEASES” (priority 2015, published 2018).

The subject of experiment [1] is Diplodia seriata (F98-01). As to the kind of experiment: Germination of the spores on malt-agar medium with fungicide. Type of experiment: cell-based. As to conditions: at the concentrations tested (0.0005 to 500 mg/L). On the procedure: (§1) Formulation 3 was used in this experiment and was compared with two formulations 5 and 6, devoid of one of the two active ingredients but of identical composition (the quantity of active ingredient omitted is replaced with water).
(§2) The fungi on which formulations 3, 5 and 6 were tested are Phaemoniella chlamydospora (81pep), Phaeoacremonium aleophilum (LR 23), Diplodia seriata (F98-01), Neofusicoccum parvum (NpSV) and Eutypa lata.
(§3) The fungi are transferred to a malt-agar medium (15 g of malt and 20 g of agar per litre of deionized water, sterilized at 120° C. for 20 minutes) in a Petri dish for multiplication.
The conidia of Diplodia seriata are obtained from pycnidia that have developed in less than three weeks of culture on the malt-agar medium. The pycnidia are taken from and cultured in sterile water in such a way that they release the conidia.
(§4) The culture medium is a malt-agar medium (15 g of malt and 20 g of agar per litre of deionized water, sterilized at 120° C. for 20 minutes). […]
(§5) The percentage germination of the spores is evaluated relative to a control placed under the same conditions. […]
(§6) For each Petri dish, 200 spores are counted and the percentage of spores germinated is calculated.
(§7) For each concentration of fungicide, the percentage efficacy of the active ingredient is determined by the following equation: […]

For experiment [2], the system named is Neofusicoccum parvum (NpSV). Described as above. Format: cell-based. On the procedure:
as §1, §2, §3
The conidia of Neofusicoccum parvum are obtained from pycnidia that have developed on fragments of grapevines shoots.
(§8) The culture medium is a malt-agar medium (15 g of malt and 20 g of agar per litre of deionized water, sterilized at 120° C. for 20 minutes).
The medium containing the fungicides is prepared by diluting the formulation under investigation in deionized water, which is added to the culture medium. […]
as §5, §6, §7

For experiment [3], the system named is Neonectria galligena (Cylindrocarpon heteronema). As to the kind of experiment: Growth inhibition by laser nephelometry in 96-well microplates. Format: cell-based. How it is done: (§9) For multicellular organisms such as fungi, the nephelometry method is used on sporulating strains (Joubert et al., Laser nephelometry applied in an automated microplate system to study filamentous fungus growth, Biotechniques 48: 399-404, 2010).
(§10) The strains are multiplied on suitable agar media in an oven at 20° C., for 8 days before their use, so as to be in their exponential growth phase. The fungal suspension is prepared extemporaneously at a concentration of […] for Pc and […] for Ch.
(§11) 100 μl of the suspension is used for the tests.
(§12) The tests are carried out in 96-well microplates. Doses of 0 ppm, 0.1 ppm, 0.3 ppm, 1 ppm, 3 ppm, 10 ppm, 30 ppm, 100 ppm, 300 ppm, 1000 ppm and 3000 ppm (final concentration of the substance) will be tested per product.
(§13) Three technical repetitions are carried out per modality (target species/formulation).
(§14) Controls are added per target pathogenic agent: one positive growth control and the products alone at the highest doses.
(§15) Nephelometry measurements (RNU) are carried out for 60 h, every 30 minutes and the growth values are measured to study the growth inhibition effect relative to the fungal controls.

Another experiment has as its system Phytophthora cactorum. The description is as above. As to conditions: nephelometry for 60 h. Format: cell-based. How it is done: as §9, §10, §11, §12, §13, §14, §15
Experiment [4] has as its system Phaemoniella chlamydospora (81pep). As to the kind of experiment: Germination of the spores on malt-agar medium with fungicide. Conditions: at 0.05 mg/1. Format: cell-based. On the procedure: as §1, §2, §3
(§16) The conidia of Phaemoniella chlamydospora and Phaeoacremonium aleophilum are obtained from cultures of these fungi. The conidia are obtained by rinsing the colony of fungi with a few millilitres of sterile deionized water.
(§17) The suspension of conidia in deionized water is then adjusted to 100-200 conidia per μl.
as §8
(§18) The medium containing the fungicides is prepared by diluting the formulation under investigation in deionized water, which is added to the culture medium. The mixture is then homogenized and distributed in Petri dishes with a diameter of 90 mm.
(§19) The final concentrations of each active ingredient in the medium are as follows: 0.0005, 0.005, 0.05, 0.5, 5, 50 and 500 mg/L.
(§20) 100 μl of a previously homogenized suspension of spores is deposited and spread over the surface of the culture medium.
(§21) Two repetitions are carried out for each test.
(§22) The percentage germination of the spores is evaluated relative to a control placed under the same conditions.
(§23) Two Petri dishes are incubated at 25° C. for a time required for the spores of the control dish to have germinated between 90 and 100%.
as §6, §7

Experiment [5] relates to Phaeoacremonium aleophilum (LR 23). The description is as above. As to conditions: at the concentrations tested (0.0005 to 500 mg/L). Type of experiment: cell-based. How it is done:
as §1, §2, §3, §16, §17, §8, §18, §19, §20, §21, §22, §23, §6, §7

For experiment [6], the system named is Neofusicoccum parvum (NpSV). As to the kind of experiment: Mycelial growth on malt-agar medium with fungicide. Format: cell-based. On the procedure: (§24) Formulation 3 was used in this experiment and was compared with two formulations 5 and 6, is devoid of one of the two active ingredients but of identical composition (the quantity of active ingredient omitted is replaced with water).
(§25) The fungi on which formulations 3, 5 and 6 were tested are Diplodia seriata (F98-01), Neofusicoccum parvum (NpSV), Eutypa lata (St309) and Formitiporia mediterranea (F2010-1).
as §8, §18, §19
(§26) Discs with a diameter of 6 mm, cut out with a punch, are placed in each dish in sterile conditions. Three repetitions are carried out for each test. The Petri dishes are incubated at 25° C. for a time necessary for the fungus to develop as far as 1 or 2 cm from the edges of a Petri dish.
(§27) The percentage mycelial growth is evaluated relative to a control placed under the same conditions for each concentration of fungicide, by the following equation: […]
(§28) The value of the concentration of the active ingredients required for inhibiting mycelial growth at 50% (IC50) or at 90% (IC90) is calculated from the regression straight line of the percentage efficacy as a function of the logarithm of the concentration of the fungicide.
(§29) The value of the concentration of the fungicide that is lethal for the fungus is obtained according to the following methodology; the mycelial implants that have not developed on the culture medium with fungicide are transferred to a malt-agar culture medium, without fungicide. The Petri dishes are then incubated at ambient temperature. Failure of the mycelial implant to take is noted.
(§30) The interactions between the fungicides in composition 3 are investigated by Wadley's method. IC50 and IC90 can be determined for each fungicide and for the fungicide combination from the curves plotted for each active ingredient used alone or for the combination.
(§31) IC90 and the theoretical IC90 for the combination is then calculated using the following equation:
(§32) The type and the level of the interaction F are then calculated by dividing the theoretical IC value by the experimental IC observed for the combination of fungicides (F=theoretical IC/experimental IC).
(§33) The interactions are defined thus: • Additivity: F=1, • Synergy: F>1, • Antagonism: F<1.
(§34) The efficacy of tetraconazole, cyproconazole alone or in combination with chlorothalonil or metiram zinc on mycelial growth was evaluated under the same conditions as in Example 4.
(§35) The efficacy of tebuconazole in combination with another […] antifungal, metiram zinc, was also evaluated.

The test system of the next experiment is Eutypa lata (St309). As to the kind of experiment: Mycelial growth on malt-agar medium with fungicide. Type of experiment: cell-based. Conditions: for activity on mycelial growth: Example 6. On the procedure: as §24, §25, §8, §18, §19, §26, §27, §28, §29, §30, §31, §32, §33, §34, §35
Experiment [7] concerns Diplodia seriata (F98-01). As to the kind of experiment: Mycelial growth on malt-agar medium with fungicide. Format: cell-based. On the procedure: as §24, §25, §8, §18, §19, §26, §27, §28, §29, §30, §31, §32, §33, §34, §35
Experiment [8] concerns Formitiporia mediterranea (F2010-1). As to the kind of experiment: Mycelial growth on malt-agar medium with fungicide. Format: cell-based, Fomitoporia mediterranea. How it is done:
as §24, §25, §8, §18, §19, §26, §27, §28, §29, §30, §31, §32, §33, §34, §35

The test system of another experiment is Eutypa lata. As to the kind of experiment: Germination of the spores on malt-agar medium with fungicide. Type of experiment: cell-based. On the procedure: as §1, §2, §3
The ascospores of Eutypa lata are obtained from perithecia situated on vine plants that have died from Eutypiosis. The perithecia are decapitated superficially, isolated one by one and soaked in sterile water for approximately 2 hours. The concentration of ascospores is then adjusted to 100-200 conidia per μl.
as §4, §5, §6, §7

In experiment [9] the test system is Phaeomoniella chlamydospora. As to the kind of experiment: Mycelial growth on malt-agar medium with fungicide (Example 6). Type of experiment: cell-based. How it is done: as §8, §18, §26, §27, §28
(§36) The value of the concentration of the fungicide that is lethal for the fungus is obtained according to the following methodology; the mycelial implants that have not developed on the culture medium with fungicide are transferred to a malt-agar culture medium, without fungicide. The Petri dishes are then incubated at ambient temperature. Failure of the mycelial implant to take is noted. […]
as §34, §35

For experiment [10], the system named is Phaeocremonium aleophilum. The description is as above. Format: cell-based. How it is done: as §8, §18, §26, §27, §28, §36, §34, §35
Where [11] appears, read: Example 5, at the concentrations tested.

As for `N#Cc1c(Cl)c(Cl)c(Cl)c(C#N)c1Cl` [chlorothalonil], the “inhibition of germination of the spores” value in experiment [1], in [4] and in experiment [5] was “does not inhibit germination of the spores” each time. In addition, the “concentration from which germination of the spores is inhibited” value in experiment [2] was no less than 5 mg/L. For the same compound, in experiment [3], the lethal dose is reported as no less than 300 ppm. Besides, in experiment [3] (growth, nephelometry for 60 h), the IC50 result is given as “approximately 100 ppm”. Besides, in experiment [3] (growth, nephelometry for 60 h), the IC90 result is “around 250 ppm”. Besides, the “50% inhibitory concentration (IC50)” value in the experiment with Phytophthora cactorum was “below 10 ppm”. Further, the “90% inhibitory concentration (IC90)” value with Phytophthora cactorum is 1000 ppm. Moreover, the “concentration at which mycelial development is strongly inhibited” value in experiment [6] (Example 5) turned out to be 500 mg/L. Moreover, the “fungicide (lethal) activity” value is on record as “does not display fungicide activity” in experiment [6] (setting [11]); “does not display fungicide activity” with Eutypa lata (St309) (Example 5, at the concentrations tested (0.0005 to 500 mg/L)); “does not display fungicide activity” in experiment [7] (setting [11]); “does not display fungicide activity” in experiment [8] (at the concentrations tested). In addition, the “activity on mycelial growth” value in [6] (Example 6) is “moderate activity”; with Eutypa lata (St309) it was “do not inhibit the mycelial growth of Eutypa lata completely”; in the experiment with Eutypa lata (St309) (listed as Chlorothalonil) it was “low activity”; in experiment [7] (Example 6) it was “low activity”. Besides, the “concentration from which mycelial development is strongly inhibited” value in the experiment with Eutypa lata (St309) (Example 5) is no less than 50 mg/L; in [7] (Example 5), no less than 500 mg/L; in experiment [8] (Example 5), no less than 5 mg/L. The “concentration that inhibits germination of the spores” value in the experiment with Eutypa lata was found to be 5 mg/1. Moreover, the “concentration at which mycelial growth is inhibited completely” value in experiment [9] and in experiment [10] was 500 mg/L each time.
